Here are results for 26 molecules from patent US11230526B1, “Cylcoalkenyl derivatives useful as agonists of the GPR120 and/or GPR40 receptors” (Janssen Pharmaceutica NV, priority 2018, dated 2022).

For one test, the target named is T1, Human GPR120 short form (Homo sapiens, UniProt Q5NUL3).
T1 construct: expressed in transfected cells
T1 sequence (Q5NUL3 1-361): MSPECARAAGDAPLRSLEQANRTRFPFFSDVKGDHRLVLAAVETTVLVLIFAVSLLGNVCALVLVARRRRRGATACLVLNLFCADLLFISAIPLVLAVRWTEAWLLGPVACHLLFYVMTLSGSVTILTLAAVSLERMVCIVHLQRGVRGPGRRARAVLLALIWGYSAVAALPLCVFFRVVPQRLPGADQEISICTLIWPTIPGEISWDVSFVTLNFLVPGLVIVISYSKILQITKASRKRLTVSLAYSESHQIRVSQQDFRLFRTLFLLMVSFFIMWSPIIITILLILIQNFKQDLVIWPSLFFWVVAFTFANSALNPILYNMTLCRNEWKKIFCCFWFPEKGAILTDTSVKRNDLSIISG
The experiment in a line: Human GPR120 calcium flux assay, Procedure Calcium B (4200 cells/well). The test is classed as cell-based. The method, then:
Human GPR120 in Calcium Flux Assay
These cells are first loaded with the Ca^+2 sensitive dye, Fluo-4 NW. Upon stimulation, intracellular released Ca^+2 can bind to the dye and alter its fluorescence intensity. This increase in fluorescence signal, and thus the flux in intracellular [Ca^2+], is detected and quantitated by fluorescence imaging using a FLIPR reader. The effect of the agonist is measured as a function of concentration and used to calculate an EC50 based upon a response curve.
In this procedure 4200 cells/well were employed.
A Human GPR120 clone (Genbank accession number NM_001195755.1) was placed into the pcDNA3.1 mammalian expression vector carrying the neomycin resistance gene. A stable mammalian cell was generated by placing the above clone into a HEK293 background. […] Cells were split 2 times a week to keep the cells in the log-phase growth. […]
The assay was performed on a FLIPR plate reader using the following parameters. Baseline was read for 10 seconds at 1 sec intervals. The program was set to transfer 10 μL of ligand from compound plate to cell plate after baseline reading. Aspiration was executed at: 10 μL/sec speed, 4.6 μL height, Dispensing was executed at: 30 μL/sec speed, 45 μL height. After compound addition, each well was read for 300 sec, with measurements collected at 1 sec intervals.
The kinetic data from the FLIPR was based upon a 5 minute window for data collection. The fluorescence of each sample well was used for individual calculations of a normalized RFU value, which was defined as maximum response minus the minimum response. The normalized fluorescence reading (RFU) was calculated as follows: RFU=Fmax−Fmin
The Fitting Equation was: Y=Bottom+(Top-Bottom)/(1+10^((Log EC50−X)*HillSlope)), where X is the log of the concentration and Y is the response.

Another test deals with T2, human GPR40 (Homo sapiens, UniProt O14842).
T2 construct: expressed in transfected cells
The experiment in a line: GPR40 calcium flux assay, human GPR40. The test is classed as cell-based. The following applies: HEK293 cells stably expressing GPR40; table does not say human or rat. The method, then:
Compounds were tested in a calcium flux assay using transfected HEK293 cells stably expressing either human GPR40 or rat GPR40. Human GPR40 expressing cells were cultured in DMEM−High Glucose media supplemented with 10% fetal bovine serum, 1×L-Glutamine, 1×Penicillin/Streptomycin and 500 μg/mL G418. Rat GPR40 expressing cells were cultured in DMEM−High Glucose media supplemented with 10% fetal bovine serum and 1 μg/mL puromycin. Cells were plated into poly-D-lysine coated 384-well plates and cultured overnight in a 37° C. humidified tissue culture incubator under 5% CO2/[…] atmosphere.
On the day of the experiment, the culture media was replaced with assay buffer (HBSS, 20 mM HEPES, 0.1% BSA) and the cells incubated at 37° C. for 1 h. Calcium-sensitive fluorescent dye (Fluo 8 No-Wash Calcium Dye, ABD Bioquest) was then added and the cells incubated for another 30 min at 37° C. followed by 15 min at room temperature while protected from the light. The cell plate and a plate of diluted compounds of Formula (I) were loaded into a fluorescent plate reader that added compounds onto the cells while measuring the fluorescence intensity of each well. The plate reader recorded fluorescence intensity at 1 second intervals for 8 min and provided the data for analysis in an Excel format. EC50 values were calculated using Prism (GraphPad) software.

T2 sequence (O14842 whole entry): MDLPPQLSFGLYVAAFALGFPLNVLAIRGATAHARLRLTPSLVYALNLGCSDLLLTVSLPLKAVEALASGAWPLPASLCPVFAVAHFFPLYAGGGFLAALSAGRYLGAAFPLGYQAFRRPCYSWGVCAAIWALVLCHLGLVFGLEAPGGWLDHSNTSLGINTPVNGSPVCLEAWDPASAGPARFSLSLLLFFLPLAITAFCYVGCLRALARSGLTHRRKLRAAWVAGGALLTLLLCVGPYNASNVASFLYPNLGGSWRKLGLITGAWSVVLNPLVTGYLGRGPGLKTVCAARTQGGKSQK

Consider `O=C(O)CCc1ccc(OCC2=C(Cc3ccccc3)CCCC2)cc1C(F)(F)F` [Compound 584, 3-[4-[(2-benzylcyclohexen-1-yl)methoxy]-2-(trifluoromethyl)phenyl]Propanoic Acid], for which the concentration for a half-maximal effect (EC50) on Human GPR120 short form was 756 nM; on human GPR40, 91 nM. In the case of `O=C(O)CCc1ccc(OCC2=C(C3CCC3)CC(F)(F)C2)cc1Cl` [Compound 430, 3-[2-chloro-4-[(2-cyclobutyl-4,4-difluoro-cyclopenten-1-yl)methoxy]phenyl]Propanoic Acid], the EC50 stood at 335 nM at Human GPR120 short form and 46 nM at human GPR40. As to `CCC1CCC(COc2ccc(CCC(=O)O)c(C)c2C)=C1c1ccc(Cl)cc1` (stereo not drawn) [Compound 6, 3-[4-[[2-(4-chlorophenyl)-3-ethyl-cyclopenten-1-yl]methoxy]-2,3-dimethyl-phenyl]Propanoic Acid], the EC50 at Human GPR120 short form and on human GPR40 was greater than 5000 nM in each case. On to `COC1CCC(c2ccccc2C)=C(COc2ccc(CCC(=O)O)cc2)C1` (stereo not drawn) [Compound 575, 3-[4-[[5-methoxy-2-(o-tolyl)cyclohexen-1-yl]methoxy]phenyl]Propanoic Acid], for which the EC50 at Human GPR120 short form and on human GPR40 was greater than 5000 nM each time.

For the molecule `O=C(O)CCc1ccc(OCC2=C(C3CCCC3)CC(F)(F)C2)cc1C(F)(F)F` [Compound 407, 3-[4-[(2-cyclopentyl-4,4-difluoro-cyclopenten-1-yl)methoxy]-2-(trifluoromethyl)phenyl]Propanoic Acid], the EC50 is 150 nM at Human GPR120 short form and 30 nM at human GPR40. For `Cn1cc(C2=C(COc3c(F)cc(CCC(=O)O)cc3F)CC(F)(F)CC2)cn1` [Compound 544] the same measures were 1350 nM and greater than 5000 nM. For the molecule `O=C(O)CCc1ccc(OCC2=C(c3ccc(Cl)cc3F)CCC2)cc1C(F)(F)F` [Compound 285, 3-[4-[[2-(4-chloro-2-fluoro-phenyl)cyclopenten-1-yl]methoxy]-2-(trifluoromethyl)phenyl]Propanoic Acid], the values for the EC50 at Human GPR120 short form and at human GPR40 were 328 nM and 108 nM, respectively. With `O=C(O)CCc1cc(F)c(OCC2=C(Cc3ccccc3)CCC2)c(F)c1` [Compound 330, 3-[4-[(2-benzylcyclopenten-1-yl)methoxy]-3,5-difluoro-phenyl]Propanoic Acid], the EC50 was 492 nM at Human GPR120 short form and greater than 5000 nM at human GPR40. Consider `O=C(O)CCc1ccc(OCC2=C(Cc3ccccc3)CCCC2)cc1Cl` [Compound 582, 3-[4-[(2-benzylcyclohexen-1-yl)methoxy]-2-chloro-phenyl]Propanoic Acid], for which the EC50 on Human GPR120 short form came to 1210 nM; on human GPR40 it was 77 nM. Take `CC(C)C1=C(COc2ccc(CCC(=O)O)cc2)CCCC1` [Compound 585, 3-[4-[(2-isopropylcyclohexen-1-yl)methoxy]phenyl]Propanoic Acid]: the EC50 at Human GPR120 short form stood at 1650 nM; on human GPR40, 2420 nM. Regarding `O=C(O)CCc1cc(F)c(OCC2=C(c3ccc(Cl)c(F)c3)CCC(F)(F)C2)c(F)c1` [Compound 528, 3-[4-[[2-(4-chloro-3-fluoro-phenyl)-5,5-difluoro-cyclohexen-1-yl]methoxy]-3,5-difluoro-phenyl]Propanoic Acid], the EC50 on Human GPR120 short form worked out at 1070 nM. For `CC(C)(C)c1cc(OCC2=C(c3ccc(Cl)cc3)CCC2)ccc1CCC(=O)O` [Compound 168, 3-[2-tert-butyl-4-[[2-(4-chlorophenyl)cyclopenten-1-yl]methoxy]phenyl]Propanoic Acid], the EC50 at Human GPR120 short form is greater than 5000 nM.

On to `Cc1cc(OCC2=C(c3cccc(F)c3)CCC2)c(F)cc1CCC(=O)O` [Compound 305, 3-[5-fluoro-4-[[2-(3-fluorophenyl)cyclopenten-1-yl]methoxy]-2-methyl-phenyl]Propanoic Acid], for which, at Human GPR120 short form, the EC50 is 378 nM. In the case of `CS(=O)(=O)CCCCc1cc(CCC(=O)O)ccc1OCC1=C(c2ccc(Cl)cc2)CCC1` [Compound 181, 3-[4-[[2-(4-chlorophenyl)cyclopenten-1-yl]methoxy]-3-(4-methylsulfonylbutyl)phenyl]Propanoic Acid], at Human GPR120 short form, the 50% effective concentration (EC50) was greater than 5000 nM. As for `N#Cc1cc(OCC2=C(C3CCCC3)CCC2)ccc1CCC(=O)O` [Compound 414, 3-[2-cyano-4-[(2-cyclopentylcyclopenten-1-yl)methoxy]phenyl]Propanoic Acid], the EC50 on Human GPR120 short form was determined as 2580 nM. As for `Cc1cccc(C2=C(COc3cc(C)c(CCC(=O)O)cc3F)CCC2)c1` [Compound 318, 3-[5-fluoro-2-methyl-4-[[2-(m-tolyl)cyclopenten-1-yl]methoxy]phenyl]Propanoic Acid], the EC50 at Human GPR120 short form worked out at 957 nM. As for `O=C(O)CCc1cc(F)c(OCC2=C(c3cncs3)CCC(F)(F)C2)c(F)c1` [Compound 549, 3-[4-[(5,5-difluoro-2-thiazol-5-yl-cyclohexen-1-yl)methoxy]-3,5-difluoro-phenyl]Propanoic Acid], the EC50 on Human GPR120 short form is 1280 nM.

Regarding `CC(Cc1cc(F)c(OCC2=C(c3ccc(Cl)cc3)CCC2)c(F)c1)C(=O)O` (stereo not drawn) [Compound 144, 3-[4-[[2-(4-chlorophenyl)cyclopenten-1-yl]methoxy]-3,5-difluoro-phenyl]-2-methyl-Propanoic Acid], the EC50 at human GPR40 was greater than 5000 nM. `CSCCCCc1cc(CCC(=O)O)ccc1OCC1=C(c2ccc(Cl)cc2)CCC(F)(F)C1` [Compound 565, 3-[4-[[2-(4-chlorophenyl)-5,5-difluoro-cyclohexen-1-yl]methoxy]-3-(4-methylsulfanylbutyl)phenyl]Propanoic Acid]: at Human GPR120 short form, the EC50 was determined as 3890 nM.

Take `Cc1c(CCC(=O)O)ccc(OCC2=C(CC3CCCC3)CCC2)c1C` [Compound 427, 3-[4-[[2-(cyclopentylmethyl)cyclopenten-1-yl]methoxy]-2,3-dimethyl-phenyl]Propanoic Acid]: the EC50 on Human GPR120 short form turned out to be 231 nM. As to `Cc1c(CCC(=O)O)cc(I)c(OCC2=C(c3ccc(I)cc3)CCCC2)c1C` [Compound 524, 3-[5-iodo-4-[[2-(4-iodophenyl)cyclohexen-1-yl]methoxy]-2,3-dimethyl-phenyl]Propanoic Acid], the EC50 on Human GPR120 short form worked out at 1570 nM. In the case of `CS(=O)(=O)CCCCc1cc(CCC(=O)O)ccc1OCC1=C(c2ccc(Cl)cc2)CCC(F)(F)C1` [Compound 551, 3-[4-[[2-(4-chlorophenyl)-5,5-difluoro-cyclohexen-1-yl]methoxy]-3-(4-methylsulfonylbutyl)phenyl]Propanoic Acid], the EC50 at Human GPR120 short form is greater than 5000 nM. Still for that read-out and setting: for `O=C(O)CCc1ccc(OCC2=C(c3ccc(Cl)cc3)CCC2)cc1C(F)(F)C(F)(F)F` [Compound 89, 3-[4-[[2-(4-chlorophenyl)cyclopenten-1-yl]methoxy]-2-(1,1,2,2,2-pentafluoroethyl)phenyl]Propanoic Acid] the value was 1410 nM. `CCc1cc(CCC(=O)O)c(C(F)(F)F)cc1OCC1=C(c2ccc(Cl)cc2)CCC1` [Compound 142, 3-[4-[[2-(4-chlorophenyl)cyclopenten-1-yl]methoxy]-5-ethyl-2-(trifluoromethyl)phenyl]Propanoic Acid]: on human GPR40, the EC50 was greater than 5000 nM.

As for `O=C(O)CCc1ccc(OCC2=C(CC3CCCC3)CCC2)cc1C(F)(F)F` [Compound 420, 3-[4-[[2-(cyclopentylmethyl)cyclopenten-1-yl]methoxy]-2-(trifluoromethyl)phenyl]Propanoic Acid], on Human GPR120 short form, the EC50 amounted to 1190 nM. Turning to `O=C(O)CCc1ccc(OCC2=C(c3ccc(Cl)cc3)CC(F)C2)cc1Cl` (stereo not drawn) [Compound 252, 3-[2-chloro-4-[[2-(4-chlorophenyl)-4-fluoro-cyclopenten-1-yl]methoxy]phenyl]Propanoic Acid], the EC50 at Human GPR120 short form is 265 nM.
